Source: publication PMC5218480 (PLoS ONE, 2017)

Test system: MV-4-11 cells
Experiment: Gene expression microarray analysis (Affymetrix PrimeView) and GSEA
Format: cell-based, human
Parameters: RFU PODN (11730768_x_at) / Fold change /veh PODN (11730768_x_at) / RFU LINC00158 (11744669_a_at) / Fold change /veh LINC00158 (11744669_a_at) / RFU DUSP10 (11751237_a_at) / Fold change /veh DUSP10 (11751237_a_at) / RFU ID3 (11757404_x_at) / Fold change /veh ID3 (11757404_x_at) / RFU PLEKHG5 (11737974_s_at) / Fold change /veh PLEKHG5 (11737974_s_at) / RFU LRRC4B (11730491_at) / Fold change /veh LRRC4B (11730491_at) / RFU GIMAP4 (11747438_a_at) / Fold change /veh GIMAP4 (11747438_a_at) / RFU KRT8 (11758183_x_at) / Fold change /veh KRT8 (11758183_x_at) / RFU CNN1 (11734310_a_at) / Fold change /veh CNN1 (11734310_a_at) / RFU VPS37D (11726825_at) / Fold change /veh VPS37D (11726825_at) / RFU C10orf10 (11716522_x_at) / Fold change /veh C10orf10 (11716522_x_at) / RFU KIR2DL2 /// KIR2DL4 /// KIR2DL5A /// KIR2DL5B /// KIR2DS1 /// KIR2DS2 /// KIR2DS3 /// KIR2DS4 /// KIR3DL3 /// KIR3DL3 /// KIR3DS1 (11738374_at) / Fold change /veh KIR2DL2 /// KIR2DL4 /// KIR2DL5A /// KIR2DL5B /// KIR2DS1 /// KIR2DS2 /// KIR2DS3 /// KIR2DS4 /// KIR3DL3 /// KIR3DL3 /// KIR3DS1 (11738374_at) / RFU C1QL1 (11718748_at) / Fold change /veh C1QL1 (11718748_at) / RFU TMPRSS4 (11747572_a_at) / Fold change /veh TMPRSS4 (11747572_a_at) / RFU HAMP (11756126_x_at) / Fold change /veh HAMP (11756126_x_at) / RFU RNFT2 (11725882_a_at) / Fold change /veh RNFT2 (11725882_a_at) / RFU NR4A2 (11747474_a_at) / Fold change /veh NR4A2 (11747474_a_at) / RFU ABCC12 (11746883_a_at) / Fold change /veh ABCC12 (11746883_a_at) / RFU TMEM136 (11760407_x_at) / Fold change /veh TMEM136 (11760407_x_at) / RFU CLDN22 /// WWC2 (11732394_at) / Fold change /veh CLDN22 /// WWC2 (11732394_at) / RFU HLA-DPB1 (11760878_x_at) / Fold change /veh HLA-DPB1 (11760878_x_at) / RFU SPINT1 (11716480_a_at) / Fold change /veh SPINT1 (11716480_a_at) / RFU GAP43 (11754022_s_at) / Fold change /veh GAP43 (11754022_s_at) / RFU A4GNT (11735810_at) / Fold change /veh A4GNT (11735810_at) / RFU PRB3 (11715151_x_at) / Fold change /veh PRB3 (11715151_x_at) / RFU TUBB4B (11761932_at) / Fold change /veh TUBB4B (11761932_at) / RFU CAPN14 (11732068_a_at) / Fold change /veh CAPN14 (11732068_a_at) / RFU TMCC2 (11721928_a_at) / Fold change /veh TMCC2 (11721928_a_at) / RFU IRGQ (11745062_a_at) / Fold change /veh IRGQ (11745062_a_at) / RFU FAM174B (11720279_a_at) / Fold change /veh FAM174B (11720279_a_at) / RFU TMPRSS4 (11748680_a_at) / Fold change /veh TMPRSS4 (11748680_a_at) / RFU FAM212B (11763350_a_at) / Fold change /veh FAM212B (11763350_a_at) / RFU PLEKHG5 (11743358_a_at) / Fold change /veh PLEKHG5 (11743358_a_at) / RFU ZSCAN30 (11745921_a_at) / Fold change /veh ZSCAN30 (11745921_a_at) / RFU CMKLR1 (11741424_a_at) / Fold change /veh CMKLR1 (11741424_a_at) / RFU LOC101060620 /// MAPK8IP1 (11723275_at) / Fold change /veh LOC101060620 /// MAPK8IP1 (11723275_at) / RFU SPTSSB (11747773_x_at) / Fold change /veh SPTSSB (11747773_x_at) / RFU PRSS12 (11739890_at) / Fold change /veh PRSS12 (11739890_at) / RFU BIN1 (11741810_x_at) / Fold change /veh BIN1 (11741810_x_at) / RFU WNT11 (11732464_a_at) / Fold change /veh WNT11 (11732464_a_at) / RFU C10orf10 (11716521_a_at) / Fold change /veh C10orf10 (11716521_a_at) / RFU C5orf56 (11738089_at) / Fold change /veh C5orf56 (11738089_at) / RFU CYB561 (11721691_x_at) / Fold change /veh CYB561 (11721691_x_at) / RFU ANKRD19P (11752326_a_at) / Fold change /veh ANKRD19P (11752326_a_at) / RFU OR2T12 /// OR2T33 /// OR2T8 (11738714_s_at) / Fold change /veh OR2T12 /// OR2T33 /// OR2T8 (11738714_s_at) / RFU VCAN (11748164_a_at) / Fold change /veh VCAN (11748164_a_at) / RFU JSRP1 (11732532_at) / Fold change /veh JSRP1 (11732532_at) / RFU KRTAP10-11 (11738290_x_at) / Fold change /veh KRTAP10-11 (11738290_x_at) / RFU MYO3A (11730013_a_at) / Fold change /veh MYO3A (11730013_a_at) / RFU EBF3 (11725865_a_at) / Fold change /veh EBF3 (11725865_a_at) / RFU CAMK2N1 (11719241_x_at) / Fold change /veh CAMK2N1 (11719241_x_at) / RFU C5orf56 (11738088_a_at) / Fold change /veh C5orf56 (11738088_a_at) / RFU OLFML3 (11715873_a_at) / Fold change /veh OLFML3 (11715873_a_at) / RFU LOC100653217 /// NTM (11731650_a_at) / Fold change /veh LOC100653217 /// NTM (11731650_a_at) / RFU MAPK11 (11762145_a_at) / Fold change /veh MAPK11 (11762145_a_at) / RFU FIZ1 (11724087_x_at) / Fold change /veh FIZ1 (11724087_x_at) / RFU OASL (11726364_x_at) / Fold change /veh OASL (11726364_x_at) / RFU SOX15 (11748057_x_at) / Fold change /veh SOX15 (11748057_x_at) / RFU CD79A (11719716_a_at) / Fold change /veh CD79A (11719716_a_at) / RFU HIST1H1D (11736915_at) / Fold change /veh HIST1H1D (11736915_at) / RFU CASKIN2 (11723855_a_at) / Fold change /veh CASKIN2 (11723855_a_at) / RFU LOC730098 (11760151_x_at) / Fold change /veh LOC730098 (11760151_x_at) / RFU OR4N2 (11742367_at) / Fold change /veh OR4N2 (11742367_at) / RFU PRRT2 (11749266_a_at) / Fold change /veh PRRT2 (11749266_a_at) / RFU SNX32 (11753110_a_at) / Fold change /veh SNX32 (11753110_a_at) / RFU CDHR5 (11726645_a_at) / Fold change /veh CDHR5 (11726645_a_at) / RFU RCAN1 (11760418_a_at) / Fold change /veh RCAN1 (11760418_a_at) / RFU FAM167A (11723789_a_at) / Fold change /veh FAM167A (11723789_a_at) / RFU FAM26E (11764081_at) / Fold change /veh FAM26E (11764081_at) / RFU ISYNA1 (11749810_s_at) / Fold change /veh ISYNA1 (11749810_s_at) / RFU ACY1 (11761880_at) / Fold change /veh ACY1 (11761880_at) / RFU 11764098_at / Fold change /veh 11764098_at / RFU SAMD14 (11745864_x_at) / Fold change /veh SAMD14 (11745864_x_at) / RFU NPB (11741838_a_at) / Fold change /veh NPB (11741838_a_at) / RFU TMPRSS6 (11731388_a_at) / Fold change /veh TMPRSS6 (11731388_a_at) / RFU KRTAP10-2 (11738614_at) / Fold change /veh KRTAP10-2 (11738614_at) / RFU ARHGAP8 /// PRR5-ARHGAP8 (11727945_x_at) / Fold change /veh ARHGAP8 /// PRR5-ARHGAP8 (11727945_x_at) / RFU KRTAP5-7 /// NADSYN1 (11734609_at) / Fold change /veh KRTAP5-7 /// NADSYN1 (11734609_at) / RFU RASL12 (11751679_a_at) / Fold change /veh RASL12 (11751679_a_at) / RFU CDKN2B (11736163_a_at) / Fold change /veh CDKN2B (11736163_a_at) / RFU PRF1 (11729649_at) / Fold change /veh PRF1 (11729649_at) / RFU, ZNF638 /// ZNF638-IT1 / Fold change vs veh, ZNF638 /// ZNF638-IT1 / RFU, PANK3 / Fold change vs veh, PANK3 / RFU, SH3YL1 / Fold change vs veh, SH3YL1 / RFU, ZEB2 / Fold change vs veh, ZEB2 / RFU, NRIP1 / Fold change vs veh, NRIP1 / RFU, PTTG1IP / Fold change vs veh, PTTG1IP / RFU, CAPN2 / Fold change vs veh, CAPN2 / RFU, MED14 / Fold change vs veh, MED14 / RFU, SNORA58 / Fold change vs veh, SNORA58 / RFU, C1orf63 / Fold change vs veh, C1orf63 / RFU, LRRFIP1 / Fold change vs veh, LRRFIP1 / RFU, NDUFAF7 / Fold change vs veh, NDUFAF7 / RFU, SLC12A2 / Fold change vs veh, SLC12A2 / RFU, IBTK / Fold change vs veh, IBTK / RFU, ESF1 / Fold change vs veh, ESF1 / Fold change vs veh, TMEM50B / RFU, TAOK1 / Fold change vs veh, TAOK1 / RFU, ACBD3 / Fold change vs veh, ACBD3 / RFU, TMA16 / Fold change vs veh, TMA16 / RFU, RWDD3 / Fold change vs veh, RWDD3 / RFU, BCAT1 / Fold change vs veh, BCAT1 / RFU, EDEM3 / Fold change vs veh, EDEM3 / RFU, TMEM33 / Fold change vs veh, TMEM33 / RFU, WDR75 / Fold change vs veh, WDR75 / RFU, AHCTF1 / Fold change vs veh, AHCTF1 / RFU, TFRC / Fold change vs veh, TFRC / RFU, ZDHHC17 / Fold change vs veh, ZDHHC17 / RFU, NOM1 / Fold change vs veh, NOM1 / RFU, ARL8B / Fold change vs veh, ARL8B / RFU, ZBTB11 / Fold change vs veh, ZBTB11 / RFU, TAMM41 / Fold change vs veh, TAMM41 / RFU, KIAA1704 /// LOC100996395 / Fold change vs veh, KIAA1704 /// LOC100996395 / RFU, ING1 / Fold change vs veh, ING1 / RFU, TRMT61B / Fold change vs veh, TRMT61B / RFU, FUBP3 / Fold change vs veh, FUBP3 / RFU, TP53 / Fold change vs veh, TP53 / RFU, TNKS2 / Fold change vs veh, TNKS2 / RFU, ZFP14 / Fold change vs veh, ZFP14 / RFU, ACTR2 / Fold change vs veh, ACTR2 / RFU, PPP3R1 / Fold change vs veh, PPP3R1 / RFU, PIK3R1 / Fold change vs veh, PIK3R1 / RFU, HNRNPA1 / Fold change vs veh, HNRNPA1 / RFU, RNF170 / Fold change vs veh, RNF170 / RFU, ZNF28 / Fold change vs veh, ZNF28 / RFU, RNGTT / Fold change vs veh, RNGTT / RFU, OGT / Fold change vs veh, OGT / RFU, BRD1 / Fold change vs veh, BRD1 / RFU, MARS / Fold change vs veh, MARS / RFU, ZNF655 / Fold change vs veh, ZNF655 / RFU, FAHD1 / Fold change vs veh, FAHD1 / RFU, BDP1 / Fold change vs veh, BDP1 / RFU, LRRCC1 / Fold change vs veh, LRRCC1 / RFU, ARID1A / Fold change vs veh, ARID1A / RFU, ZNF146 / Fold change vs veh, ZNF146 / RFU, ZNF330 / Fold change vs veh, ZNF330 / RFU, GPN3 / Fold change vs veh, GPN3 / RFU, C9orf123 / Fold change vs veh, C9orf123 / RFU, N4BP2L2 / Fold change vs veh, N4BP2L2 / RFU, ARFIP1 / Fold change vs veh, ARFIP1 / RFU, FAM179B / Fold change vs veh, FAM179B / RFU, BCL10 / Fold change vs veh, BCL10 / RFU, UHRF1BP1L / Fold change vs veh, UHRF1BP1L / RFU, BET1 / Fold change vs veh, BET1 / RFU, CNOT2 / Fold change vs veh, CNOT2 / RFU, ZNF268 / Fold change vs veh, ZNF268 / Fold change vs veh, ZNF507 / RFU, DGCR2 / Fold change vs veh, DGCR2 / RFU, WDSUB1 / Fold change vs veh, WDSUB1 / Fold change vs veh, HSP90B1 /// MIR3652 / RFU, ADSS / Fold change vs veh, ADSS / RFU, GK / Fold change vs veh, GK / RFU, ZNF148 / Fold change vs veh, ZNF148 / RFU, TAF9 / Fold change vs veh, TAF9 / RFU, SLC1A5 / Fold change vs veh, SLC1A5 / RFU, SLMO2 / Fold change vs veh, SLMO2 / RFU, ABCC4 / Fold change vs veh, ABCC4 / RFU, LOC101060439 /// RAP1B / Fold change vs veh, LOC101060439 /// RAP1B / RFU, RFX7 / Fold change vs veh, RFX7 / RFU, GTPBP10 / Fold change vs veh, GTPBP10 / RFU, CNEP1R1 / Fold change vs veh, CNEP1R1 / RFU, BIVM-ERCC5 /// ERCC5 / Fold change vs veh, BIVM-ERCC5 /// ERCC5 / RFU, ILF3 / Fold change vs veh, ILF3 / RFU 11762660_at / Fold change /veh 11762660_at / RFU VCAN (11757783_s_at) / Fold change /veh VCAN (11757783_s_at) / RFU DDX43 (11728927_at) / Fold change /veh DDX43 (11728927_at) / RFU KRT8 (11758188_x_at) / Fold change /veh KRT8 (11758188_x_at) / RFU NKD1 (11759106_at) / Fold change /veh NKD1 (11759106_at) / RFU SRD5A1 (11742802_a_at) / Fold change /veh SRD5A1 (11742802_a_at) / RFU TPSAB1 /// TPSB2 (11721975_s_at) / Fold change /veh TPSAB1 /// TPSB2 (11721975_s_at) / RFU GSTM3 (11746129_a_at) / Fold change /veh GSTM3 (11746129_a_at) / RFU IL23R (11737362_x_at) / Fold change /veh IL23R (11737362_x_at) / RFU TMEM51 (11727254_a_at) / Fold change /veh TMEM51 (11727254_a_at) / RFU PIWIL2 (11732686_x_at) / Fold change /veh PIWIL2 (11732686_x_at) / RFU ORM1 (11744905_x_at) / Fold change /veh ORM1 (11744905_x_at) / RFU CCDC152 (11743942_at) / Fold change /veh CCDC152 (11743942_at) / RFU ECM1 (11717891_a_at) / Fold change /veh ECM1 (11717891_a_at) / RFU IL23R (11748794_a_at) / Fold change /veh IL23R (11748794_a_at) / RFU TNFAIP8L3 (11732012_x_at) / Fold change /veh TNFAIP8L3 (11732012_x_at) / RFU MBOAT4 (11741988_at) / Fold change /veh MBOAT4 (11741988_at) / RFU 11764193_at / Fold change /veh 11764193_at / RFU TMEM53 (11763286_at) / Fold change /veh TMEM53 (11763286_at) / RFU MAGEB2 (11727129_at) / Fold change /veh MAGEB2 (11727129_at) / RFU TMEM200A (11744735_a_at) / Fold change /veh TMEM200A (11744735_a_at) / RFU CCDC152 (11751479_a_at) / Fold change /veh CCDC152 (11751479_a_at) / RFU FAM211A (11726209_a_at) / Fold change /veh FAM211A (11726209_a_at) / RFU RGS16 (11746705_a_at) / Fold change /veh RGS16 (11746705_a_at) / RFU VCAN (11755009_s_at) / Fold change /veh VCAN (11755009_s_at) / RFU RHOB (11743442_s_at) / Fold change /veh RHOB (11743442_s_at) / RFU RGS16 (11720943_a_at) / Fold change /veh RGS16 (11720943_a_at) / RFU RGS16 (11720944_at) / Fold change /veh RGS16 (11720944_at) / RFU, VPS4B / Fold change vs veh, VPS4B / RFU, CREB1 / Fold change vs veh, CREB1 / RFU, DNAJC13 / Fold change vs veh, DNAJC13 / RFU, GNAQ / Fold change vs veh, GNAQ / RFU, CDK5R1 / Fold change vs veh, CDK5R1 / RFU, ZRANB3 / Fold change vs veh, ZRANB3 / RFU, CUL4A / Fold change vs veh, CUL4A / RFU, CCNY / Fold change vs veh, CCNY / RFU, UFL1 / Fold change vs veh, UFL1 / RFU, COG3 / Fold change vs veh, COG3 / RFU, DIAPH2 / Fold change vs veh, DIAPH2 / RFU, SKA2 / Fold change vs veh, SKA2 / RFU, AFF3 / Fold change vs veh, AFF3 / RFU, LMF1 / Fold change vs veh, LMF1 / RFU, IPO11 / Fold change vs veh, IPO11 / RFU, DFFB / Fold change vs veh, DFFB / RFU, FOXP1 / Fold change vs veh, FOXP1 / RFU, CARD8 / Fold change vs veh, CARD8 / RFU, STRN3 / Fold change vs veh, STRN3 / RFU, ADK / Fold change vs veh, ADK / RFU, RASSF2 / Fold change vs veh, RASSF2 / RFU, WIPF1 / Fold change vs veh, WIPF1 / RFU, LARP1B / Fold change vs veh, LARP1B / RFU, RASA1 / Fold change vs veh, RASA1 / RFU, RB1 / Fold change vs veh, RB1 / RFU, PPFIA1 / Fold change vs veh, PPFIA1 / RFU, MAT2A / Fold change vs veh, MAT2A / RFU, CCT5 / Fold change vs veh, CCT5 / RFU, WDR92 / Fold change vs veh, WDR92 / RFU, CUX1 / Fold change vs veh, CUX1 / RFU, TTC7A / Fold change vs veh, TTC7A / RFU, TMEM135 / Fold change vs veh, TMEM135 / RFU, DEPTOR / Fold change vs veh, DEPTOR / RFU, CPM / Fold change vs veh, CPM / RFU, DNAJB6 / Fold change vs veh, DNAJB6 / RFU, CACNA2D3 / Fold change vs veh, CACNA2D3 / RFU, DTX4 / Fold change vs veh, DTX4 / RFU, TFCP2 / Fold change vs veh, TFCP2 / RFU, GMCL1 /// GMCL1P1 / Fold change vs veh, GMCL1 /// GMCL1P1 / RFU, AEBP2 / Fold change vs veh, AEBP2 / RFU, SNHG1 /// SNORD22 /// SNORD25 /// SNORD26 /// SNORD27 /// SNORD28 /// SNORD29 /// SNORD31 / Fold change vs veh, SNHG1 /// SNORD22 /// SNORD25 /// SNORD26 /// SNORD27 /// SNORD28 /// SNORD29 /// SNORD31 / Fold change (Aza/veh), C12orf56 (ProbeSet 11735607_a_at) / Fold change (ACY-1035/veh), C12orf56 (ProbeSet 11735607_a_at) / Fold change (Aza/veh), FGFR1OP (ProbeSet 11751329_s_at) / Fold change (ACY-1035/veh), FGFR1OP (ProbeSet 11751329_s_at) / Fold change (Aza/veh), VPS36 (ProbeSet 11739960_a_at) / Fold change (ACY-1035/veh), VPS36 (ProbeSet 11739960_a_at) / RFU SYPL1 (11715823_x_at) / Fold change /veh SYPL1 (11715823_x_at) / RFU IGFBP7 (11715501_s_at) / Fold change /veh IGFBP7 (11715501_s_at) / RFU REEP3 (11722064_at) / Fold change /veh REEP3 (11722064_at) / RFU IGLL1 (11728026_x_at) / Fold change /veh IGLL1 (11728026_x_at): dose or concentration left out as unconfirmed
Conditions: gene FGFR1OP; Azacitidine vs DMSO; LIST F

Nc1ncn([C@@H]2O[C@H](CO)[C@@H](O)[C@H]2O)c(=O)n1 [azacitidine]
Fold change (Aza/veh), FGFR1OP (ProbeSet 11751329_s_at): 0.95
